Results from patent publication US20120029187A1, “HALOALKYLSULFONANILIDE DERIVATIVE” (Nissan Chemical Industries, Ltd., priority 2009, published 2012).

Experiments:
Assay type in all cases: in vivo
barnyardgrass [1] = assay: Test Example 1: herbicidal effects in preemergence treatment under submerged conditions; conditions: dose 2.52 g/a
Summary of the method: (§1)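 Flooded-paddy preemergence assay; EC diluted with water, surface-applied at weed seeding; doses g/a; rice transplanted at 2.5 leaves; 0–5 mortality score after 3 weeks.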

bulrush [2] = assay: as above; conditions: dose 2.52 g/a
Summary of the method: as §1

ducksalad [3] = assay: as above; conditions: dose 2.52 g/a
Summary of the method: as §1

transplanted rice = assay: Test Example 1: preemergence treatment under submerged conditions, effect on crop; conditions: dose 2.52 g/a
Summary of the method: as §1

barnyardgrass [4] = assay: Test Example 2: herbicidal effects during the vegetation period under submerged conditions; conditions: treatment during the vegetation period under submerged conditions; dose 2.52 g/a
Summary of the method: (§2)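 Barnyardgrass, bulrush and ducksalad were co-sown in alluvial soil flooded to 4 cm and grown in a greenhouse at 25 to 30° C. At the 1- or 2-leaf stage, water-diluted emulsifiable concentrates went onto the water surface at set doses (g/a). Herbicidal effect was scored three weeks later on a graded scale.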

bulrush [5] = assay: as above; conditions: treatment during the vegetation period under submerged conditions; dose 2.52 g/a
Summary of the method: as §2

ducksalad [6] = assay: as above; conditions: treatment during the vegetation period under submerged conditions; dose 2.52 g/a
Summary of the method: as §2

Italian ryegrass [7] = assay: Test Example 3: herbicidal effects in soil treatment; conditions: dose 3.2 g/a
Summary of the method: (§3)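 Seeds were sown in sterilized diluvial soil and covered with about 1.5 cm of soil. Compounds, formulated as emulsifiable concentrates and diluted with water, were sprayed evenly over the soil surface at set doses in g/a. Herbicidal effect was scored on a rating scale three weeks later.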

barnyardgrass [8] = assay: as above; conditions: dose 3.2 g/a
Summary of the method: as §3

beadstraw [9] = assay: as above; conditions: dose 3.2 g/a
Summary of the method: as §3

common chickweed [10] = assay: as above; conditions: dose 3.2 g/a
Summary of the method: as §3

common lambsquater [11] = assay: as above; conditions: dose 3.2 g/a
Summary of the method: as §3

common ragweed [12] = assay: as above; conditions: dose 3.2 g/a
Summary of the method: as §3

giant foxtail [13] = assay: as above; conditions: dose 3.2 g/a
Summary of the method: as §3

large crabgrass [14] = assay: as above; conditions: dose 3.2 g/a
Summary of the method: as §3

posumbu knotweed [15] = assay: as above; conditions: dose 3.2 g/a
Summary of the method: as §3

redroot pigweed [16] = assay: as above; conditions: dose 3.2 g/a
Summary of the method: as §3

velvetleaf [17] = assay: as above; conditions: dose 3.2 g/a
Summary of the method: as §3

water foxtail [18] = assay: as above; conditions: dose 3.2 g/a
Summary of the method: as §3

Italian ryegrass [19] = assay: Test Example 4: herbicidal effect in foliage treatment; conditions: dose 3.2 g/a
Summary of the method: (§4)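 Seeds sown in sterilized diluvial soil under ~1.5 cm soil cover and grown 14 days in a greenhouse at 25 to 30° C. Emulsifiable concentrates diluted with water were then sprayed uniformly on foliage at predetermined doses (g/a). Herbicidal effect was scored three weeks after application on a graded evaluation scale.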

barnyardgrass [20] = assay: as above; conditions: dose 3.2 g/a
Summary of the method: as §4

beadstraw [21] = assay: as above; conditions: dose 3.2 g/a, three weeks after application
Summary of the method: as §4

common chickweed [22] = assay: as above; conditions: dose 3.2 g/a
Summary of the method: as §4

common lambsquater [23] = assay: as above; conditions: dose 3.2 g/a
Summary of the method: as §4

common ragweed [24] = assay: as above; conditions: dose 3.2 g/a
Summary of the method: as §4

giant foxtail [25] = assay: as above; conditions: dose 3.2 g/a
Summary of the method: as §4

large crabgrass [26] = assay: as above; conditions: dose 3.2 g/a
Summary of the method: as §4

posumbu knotweed [27] = assay: as above; conditions: dose 3.2 g/a
Summary of the method: as §4

redroot pigweed [28] = assay: as above; conditions: dose 3.2 g/a
Summary of the method: as §4

velvetleaf [29] = assay: as above; conditions: dose 3.2 g/a
Summary of the method: as §4

water foxtail [30] = assay: as above; conditions: dose 3.2 g/a
Summary of the method: as §4

[31] = three weeks after the application

For `CC1(C)CC(=O)N(Cc2ccccc2N(C(=O)OCCCl)S(=O)(=O)C(F)(F)F)CO1` [II-28], the “A: barnyardgrass, herbicidal effect (evaluation scale 0-5)” value (barnyardgrass [1]) was 5 (mortality of 90% or above (nearly complete death)), the “B: bulrush, herbicidal effect (evaluation scale 0-5)” value (from here on “B: bulrush, herbicidal effect”) (bulrush [2]) was 5 (mortality of 90% or above (nearly complete death)) and the “C: ducksalad, herbicidal effect (evaluation scale 0-5)” value (“C: ducksalad, herbicidal effect” below) (ducksalad [3]) was 5 (mortality of 90% or above (nearly complete death)). The “a: transplanted rice, effect on crop (evaluation scale 0-5)” value (transplanted rice) was 4 (mortality of at least 70% and less than 90%), the “A: barnyardgrass, herbicidal effect (evaluation scale 0-5)” value (barnyardgrass [4]) was 5 (mortality of 90% or above (nearly complete death)) and the “B: bulrush, herbicidal effect” value (bulrush [5]) was 5 (mortality of 90% or above (nearly complete death)). For the same molecule, the “C: ducksalad, herbicidal effect” value (ducksalad [6]) was 5 (mortality of 90% or above (nearly complete death)), the “H: Italian ryegrass, herbicidal effect (evaluation scale 0-5)” value (Italian ryegrass [7]) was 2 (mortality of at least 20% and less than 40%) and the “A: barnyardgrass, herbicidal effect (evaluation scale 0-5)” value (barnyardgrass [8]) was 5 (mortality of 90% or above (nearly complete death)). For the same molecule, the “O: beadstraw, herbicidal effect (evaluation scale 0-5)” value (beadstraw [9]) was 5 (mortality of 90% or above (nearly complete death)), the “N: common chickweed, herbicidal effect (evaluation scale 0-5)” value (common chickweed [10]) was 4 (mortality of at least 70% and less than 90%) and the “L: common lambsquater, herbicidal effect (evaluation scale 0-5)” value (common lambsquater [11]) was 0 (mortality of less than 5% (almost ineffective)). For the same molecule, the “J: common ragweed, herbicidal effect (evaluation scale 0-5)” value (common ragweed [12]) was 4 (mortality of at least 70% and less than 90%), the “E: giant foxtail, herbicidal effect (evaluation scale 0-5)” value (giant foxtail [13]) was 5 (mortality of 90% or above (nearly complete death)) and the “D: large crabgrass, herbicidal effect (evaluation scale 0-5)” value (large crabgrass [14]) was 5 (mortality of 90% or above (nearly complete death)). The “M: posumbu knotweed, herbicidal effect (evaluation scale 0-5)” value (posumbu knotweed [15]) was 5 (mortality of 90% or above (nearly complete death)), the “K: redroot pigweed, herbicidal effect (evaluation scale 0-5)” value (redroot pigweed [16]) was 0 (mortality of less than 5% (almost ineffective)) and the “I: velvetleaf, herbicidal effect (evaluation scale 0-5)” value (velvetleaf [17]) was 4 (mortality of at least 70% and less than 90%). For the same molecule, the “G: water foxtail, herbicidal effect (evaluation scale 0-5)” value (water foxtail [18]) was 5 (mortality of 90% or above (nearly complete death)), the “H: Italian ryegrass, herbicidal effect” value (Italian ryegrass [19]; three weeks after application) was 3 (mortality of at least 40% and less than 70%) and the “A: barnyardgrass, herbicidal effect” value (barnyardgrass [20]; three weeks after application) was 5 (mortality of 90% or above (nearly complete death)). The “O: beadstraw, herbicidal effect” value (beadstraw [21]) was 5 (mortality of 90% or above (nearly complete death)), the “N: common chickweed, herbicidal effect” value (common chickweed [22]; three weeks after application) was 4 (mortality of at least 70% and less than 90%) and the “L: common lambsquater, herbicidal effect” value (common lambsquater [23]; three weeks after application) was 1 (mortality of at least 5% and less than 20%). For the same molecule, the “J: common ragweed, herbicidal effect” value (common ragweed [24]; three weeks after application) was 3 (mortality of at least 40% and less than 70%), the “E: giant foxtail, herbicidal effect” value (giant foxtail [25]; three weeks after application) was 4 (mortality of at least 70% and less than 90%) and the “D: large crabgrass, herbicidal effect” value (large crabgrass [26]; three weeks after application) was 4 (mortality of at least 70% and less than 90%). For the same molecule, the “M: posumbu knotweed, herbicidal effect” value (posumbu knotweed [27]; three weeks after application) was 4 (mortality of at least 70% and less than 90%), the “K: redroot pigweed, herbicidal effect” value (redroot pigweed [28]; three weeks after application) was 0 (mortality of less than 5% (almost ineffective)) and the “I: velvetleaf, herbicidal effect” value (velvetleaf [29]; three weeks after application) was 4 (mortality of at least 70% and less than 90%). For the same molecule, the “G: water foxtail, herbicidal effect” value (water foxtail [30]; three weeks after application) was 5 (mortality of 90% or above (nearly complete death)).

With `CCOC(=O)N(c1ccccc1CN1C(=O)CC(C)(C)OC1C)S(=O)(=O)C(F)(F)F` (stereo not shown) [II-74] the “A: barnyardgrass, herbicidal effect (evaluation scale 0-5)” value (barnyardgrass [1]) was 5 (mortality of 90% or above (nearly complete death)), the “B: bulrush, herbicidal effect” value (bulrush [2]) was 5 (mortality of 90% or above (nearly complete death)) and the “C: ducksalad, herbicidal effect” value (ducksalad [3]) was 5 (mortality of 90% or above (nearly complete death)). The “a: transplanted rice, effect on crop (evaluation scale 0-5)” value (transplanted rice) was 3 (mortality of at least 40% and less than 70%), the “A: barnyardgrass, herbicidal effect (evaluation scale 0-5)” value (barnyardgrass [4]) was 5 (mortality of 90% or above (nearly complete death)) and the “B: bulrush, herbicidal effect” value (bulrush [5]) was 5 (mortality of 90% or above (nearly complete death)). For the same molecule, the “C: ducksalad, herbicidal effect” value (ducksalad [6]) was 5 (mortality of 90% or above (nearly complete death)), the “H: Italian ryegrass, herbicidal effect (evaluation scale 0-5)” value (Italian ryegrass [7]) was 4 (mortality of at least 70% and less than 90%) and the “A: barnyardgrass, herbicidal effect (evaluation scale 0-5)” value (barnyardgrass [8]) was 5 (mortality of 90% or above (nearly complete death)). For the same molecule, the “O: beadstraw, herbicidal effect (evaluation scale 0-5)” value (beadstraw [9]) was 4 (mortality of at least 70% and less than 90%), the “N: common chickweed, herbicidal effect (evaluation scale 0-5)” value (common chickweed [10]) was 3 (mortality of at least 40% and less than 70%) and the “L: common lambsquater, herbicidal effect (evaluation scale 0-5)” value (common lambsquater [11]) was 1 (mortality of at least 5% and less than 20%). For the same molecule, the “J: common ragweed, herbicidal effect (evaluation scale 0-5)” value (common ragweed [12]) was 2 (mortality of at least 20% and less than 40%), the “E: giant foxtail, herbicidal effect (evaluation scale 0-5)” value (giant foxtail [13]) was 5 (mortality of 90% or above (nearly complete death)) and the “D: large crabgrass, herbicidal effect (evaluation scale 0-5)” value (large crabgrass [14]) was 5 (mortality of 90% or above (nearly complete death)). For the same molecule, the “M: posumbu knotweed, herbicidal effect (evaluation scale 0-5)” value (posumbu knotweed [15]) was 5 (mortality of 90% or above (nearly complete death)), the “K: redroot pigweed, herbicidal effect (evaluation scale 0-5)” value (redroot pigweed [16]) was 0 (mortality of less than 5% (almost ineffective)) and the “I: velvetleaf, herbicidal effect (evaluation scale 0-5)” value (velvetleaf [17]) was 5 (mortality of 90% or above (nearly complete death)). The “G: water foxtail, herbicidal effect (evaluation scale 0-5)” value (water foxtail [18]) was 5 (mortality of 90% or above (nearly complete death)), the “H: Italian ryegrass, herbicidal effect” value (Italian ryegrass [19]; [31]) was 5 (mortality of 90% or above (nearly complete death)) and the “A: barnyardgrass, herbicidal effect” value (barnyardgrass [20]; [31]) was 5 (mortality of 90% or above (nearly complete death)). The “N: common chickweed, herbicidal effect” value (common chickweed [22]; [31]) was 4 (mortality of at least 70% and less than 90%), the “L: common lambsquater, herbicidal effect” value (common lambsquater [23]; [31]) was 3 (mortality of at least 40% and less than 70%) and the “J: common ragweed, herbicidal effect” value (common ragweed [24]; [31]) was 3 (mortality of at least 40% and less than 70%). For the same molecule, the “E: giant foxtail, herbicidal effect” value (giant foxtail [25]; [31]) was 3 (mortality of at least 40% and less than 70%), the “D: large crabgrass, herbicidal effect” value (large crabgrass [26]; [31]) was 5 (mortality of 90% or above (nearly complete death)) and the “M: posumbu knotweed, herbicidal effect” value (posumbu knotweed [27]; [31]) was 4 (mortality of at least 70% and less than 90%). The “K: redroot pigweed, herbicidal effect” value (redroot pigweed [28]; [31]) was 0 (mortality of less than 5% (almost ineffective)), the “I: velvetleaf, herbicidal effect” value (velvetleaf [29]; [31]) was 5 (mortality of 90% or above (nearly complete death)) and the “G: water foxtail, herbicidal effect” value (water foxtail [30]; [31]) was 5 (mortality of 90% or above (nearly complete death)).
